Assays:
OXA-1 β-lactamase enzyme = OXA-1 β-lactamase enzyme (Escherichia coli, UniProt P13661); assay: biochemical
P99 β-lactamase enzyme = P99 β-lactamase enzyme (Enterobacter cloacae, UniProt P05364); assay: biochemical
PC1 β-lactamase enzyme = PC1 β-lactamase enzyme (Staphylococcus aureus, UniProt P00807); assay: biochemical
[1] = target: P. mirabilis β-lactamase enzyme; assay: β-lactamase inhibitory activity: 50% inhibition of β-lactam hydrolysis, P. mirabilis; type: biochemical; conditions: read-out: I50 (concentration required to achieve 50% inhibition of β-lactam hydrolysis)
BC II β-lactamase enzyme = BC II β-lactamase enzyme (Bacillus cereus, UniProt P04190); assay: β-lactamase inhibitory activity: 50% inhibition of β-lactam hydrolysis, BC II; type: biochemical
TEM-1 β-lactamase enzyme = TEM-1 β-lactamase enzyme (Escherichia coli, UniProt P62593); assay: β-lactamase inhibitory activity: 50% inhibition of β-lactam hydrolysis, TEM-1; type: biochemical
Sequence of TEM-1 β-lactamase enzyme (P62593 24-286 limits assumed): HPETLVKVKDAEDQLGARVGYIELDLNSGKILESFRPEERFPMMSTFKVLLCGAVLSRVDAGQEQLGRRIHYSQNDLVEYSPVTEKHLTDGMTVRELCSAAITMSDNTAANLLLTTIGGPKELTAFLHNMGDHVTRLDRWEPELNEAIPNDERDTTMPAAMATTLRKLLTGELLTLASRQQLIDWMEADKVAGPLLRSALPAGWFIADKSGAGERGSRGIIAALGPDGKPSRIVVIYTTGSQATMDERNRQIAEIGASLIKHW

Sequence of OXA-1 β-lactamase enzyme (P13661 26-276): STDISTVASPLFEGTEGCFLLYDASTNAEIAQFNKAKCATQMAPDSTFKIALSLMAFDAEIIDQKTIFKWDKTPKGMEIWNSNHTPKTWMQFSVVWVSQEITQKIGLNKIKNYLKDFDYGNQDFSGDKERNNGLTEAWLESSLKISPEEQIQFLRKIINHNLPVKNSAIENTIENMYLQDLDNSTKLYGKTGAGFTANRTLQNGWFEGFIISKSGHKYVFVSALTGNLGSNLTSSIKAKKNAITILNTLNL
Sequence of BC II β-lactamase enzyme (P04190 31-257): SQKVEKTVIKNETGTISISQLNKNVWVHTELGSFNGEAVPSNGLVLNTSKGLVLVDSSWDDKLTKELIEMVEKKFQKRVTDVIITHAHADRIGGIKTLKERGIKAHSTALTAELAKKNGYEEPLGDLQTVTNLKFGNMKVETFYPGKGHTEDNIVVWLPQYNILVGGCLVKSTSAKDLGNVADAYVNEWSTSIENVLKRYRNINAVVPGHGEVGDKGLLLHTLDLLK
Sequence of P99 β-lactamase enzyme (P05364 21-381): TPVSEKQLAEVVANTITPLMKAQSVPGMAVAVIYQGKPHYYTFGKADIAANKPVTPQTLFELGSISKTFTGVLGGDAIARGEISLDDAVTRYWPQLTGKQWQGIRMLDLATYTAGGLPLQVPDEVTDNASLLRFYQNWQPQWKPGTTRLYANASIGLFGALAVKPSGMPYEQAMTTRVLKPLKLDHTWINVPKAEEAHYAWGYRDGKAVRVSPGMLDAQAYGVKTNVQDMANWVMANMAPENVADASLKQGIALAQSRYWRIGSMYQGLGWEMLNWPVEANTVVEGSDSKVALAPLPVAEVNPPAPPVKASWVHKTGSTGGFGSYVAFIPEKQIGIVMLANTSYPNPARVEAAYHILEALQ
Sequence of PC1 β-lactamase enzyme (P00807 25-281): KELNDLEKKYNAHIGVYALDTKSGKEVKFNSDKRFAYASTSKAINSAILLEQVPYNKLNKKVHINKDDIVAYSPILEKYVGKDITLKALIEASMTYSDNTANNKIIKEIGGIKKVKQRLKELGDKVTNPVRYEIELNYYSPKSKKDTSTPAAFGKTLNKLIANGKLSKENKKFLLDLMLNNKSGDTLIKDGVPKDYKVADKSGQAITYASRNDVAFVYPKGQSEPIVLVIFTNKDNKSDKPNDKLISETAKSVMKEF

SMILES: O=C(O)C1=CS[C@@H]2/C(=C\c3cn4c(n3)SCC4)C(=O)N12 [Example 1, Sodium (5R)-6[(Z)-(2,3-dihydroimidazo[2,1-b]thiazol-6-yl)methylene]-penem-3-carboxylate]
- IC50 (OXA-1 β-lactamase enzyme): 10 nM
- IC50 (P99 β-lactamase enzyme): < 5 nM
- IC50 (PC1 β-lactamase enzyme): 10 nM
- IC50 [1]: 10 nM
- IC50 (BC II β-lactamase enzyme): 48600 nM
- IC50 (TEM-1 β-lactamase enzyme): 10 nM

From patent US6600035B1, “6-(substituted methylene) penems and intermediates” (SMithKline Beecham p.l.c., priority 1992, dated 2003)
